Legend:
human TLR7 = human TLR7 (Homo sapiens (Human), UniProt Q9NYK1); assay: HEK-Blue human TLR7 cells NF-κB SEAP reporter assay; assay type: cell-based; conditions: stimulation for 20 hours
Source text: (§1) For TLR8 and TLR7 activity testing, HEK-Blue human TLR8 or TLR7 cells (Invivogen, San Diego, Calif., USA) are used, respectively. These cells are designed for studying the stimulation of human TLR8 or TLR7 by monitoring the activation of NF-κB. A SEAP (secreted embryonic alkaline phosphatase) reporter gene is placed under the control of the IFN-b minimal promoter fused to five NF-κB and AP-1-binding sites. Therefore the reporter expression is regulated by the NF-κB promoter upon stimulation of human TLR8 or TLR7 for 20 hours. The cell culture supernatant SEAP reporter activity was determined using Quanti Blue kit (Invivogen, San Diego, Ca, USA) at a wavelength of 640 nm, a detection medium that turns purple/blue in the presence of alkaline phosphatase. EC50 values were determined using Activity Base analysis (ID Business Solution, Limited).

human TLR8 = human TLR8 (Homo sapiens (Human), UniProt Q9NR97); assay: HEK-Blue human TLR8 cells NF-κB SEAP reporter assay; assay type: cell-based; conditions: stimulation for 20 hours
Source text: as §1

Chain of human TLR8 (Q9NR97 27-1041): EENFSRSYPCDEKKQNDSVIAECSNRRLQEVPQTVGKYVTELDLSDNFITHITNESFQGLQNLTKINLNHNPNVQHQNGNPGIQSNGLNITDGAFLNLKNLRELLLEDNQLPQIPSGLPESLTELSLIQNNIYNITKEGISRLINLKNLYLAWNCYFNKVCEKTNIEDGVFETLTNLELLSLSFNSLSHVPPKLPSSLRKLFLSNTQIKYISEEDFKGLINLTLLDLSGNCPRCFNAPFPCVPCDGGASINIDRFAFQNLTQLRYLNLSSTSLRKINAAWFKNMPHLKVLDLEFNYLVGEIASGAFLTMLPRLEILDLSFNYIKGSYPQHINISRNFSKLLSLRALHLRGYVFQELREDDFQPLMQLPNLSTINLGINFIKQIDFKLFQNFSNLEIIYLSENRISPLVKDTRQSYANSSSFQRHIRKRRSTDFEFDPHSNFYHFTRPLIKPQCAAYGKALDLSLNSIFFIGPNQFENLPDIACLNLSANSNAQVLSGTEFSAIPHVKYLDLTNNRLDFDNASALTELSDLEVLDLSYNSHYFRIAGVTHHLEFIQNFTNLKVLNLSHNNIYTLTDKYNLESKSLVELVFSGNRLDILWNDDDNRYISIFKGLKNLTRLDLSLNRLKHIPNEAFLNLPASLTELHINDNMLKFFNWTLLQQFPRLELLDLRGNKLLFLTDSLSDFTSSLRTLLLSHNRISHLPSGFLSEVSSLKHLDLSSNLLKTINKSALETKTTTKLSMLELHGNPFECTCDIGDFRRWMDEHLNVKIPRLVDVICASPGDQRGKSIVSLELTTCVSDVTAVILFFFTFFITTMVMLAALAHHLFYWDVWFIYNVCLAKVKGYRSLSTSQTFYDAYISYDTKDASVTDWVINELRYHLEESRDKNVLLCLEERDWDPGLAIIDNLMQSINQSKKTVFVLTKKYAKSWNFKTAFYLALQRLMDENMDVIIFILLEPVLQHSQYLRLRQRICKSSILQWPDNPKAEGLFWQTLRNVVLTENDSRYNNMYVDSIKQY
Chain of human TLR7 (Q9NYK1 27-1049): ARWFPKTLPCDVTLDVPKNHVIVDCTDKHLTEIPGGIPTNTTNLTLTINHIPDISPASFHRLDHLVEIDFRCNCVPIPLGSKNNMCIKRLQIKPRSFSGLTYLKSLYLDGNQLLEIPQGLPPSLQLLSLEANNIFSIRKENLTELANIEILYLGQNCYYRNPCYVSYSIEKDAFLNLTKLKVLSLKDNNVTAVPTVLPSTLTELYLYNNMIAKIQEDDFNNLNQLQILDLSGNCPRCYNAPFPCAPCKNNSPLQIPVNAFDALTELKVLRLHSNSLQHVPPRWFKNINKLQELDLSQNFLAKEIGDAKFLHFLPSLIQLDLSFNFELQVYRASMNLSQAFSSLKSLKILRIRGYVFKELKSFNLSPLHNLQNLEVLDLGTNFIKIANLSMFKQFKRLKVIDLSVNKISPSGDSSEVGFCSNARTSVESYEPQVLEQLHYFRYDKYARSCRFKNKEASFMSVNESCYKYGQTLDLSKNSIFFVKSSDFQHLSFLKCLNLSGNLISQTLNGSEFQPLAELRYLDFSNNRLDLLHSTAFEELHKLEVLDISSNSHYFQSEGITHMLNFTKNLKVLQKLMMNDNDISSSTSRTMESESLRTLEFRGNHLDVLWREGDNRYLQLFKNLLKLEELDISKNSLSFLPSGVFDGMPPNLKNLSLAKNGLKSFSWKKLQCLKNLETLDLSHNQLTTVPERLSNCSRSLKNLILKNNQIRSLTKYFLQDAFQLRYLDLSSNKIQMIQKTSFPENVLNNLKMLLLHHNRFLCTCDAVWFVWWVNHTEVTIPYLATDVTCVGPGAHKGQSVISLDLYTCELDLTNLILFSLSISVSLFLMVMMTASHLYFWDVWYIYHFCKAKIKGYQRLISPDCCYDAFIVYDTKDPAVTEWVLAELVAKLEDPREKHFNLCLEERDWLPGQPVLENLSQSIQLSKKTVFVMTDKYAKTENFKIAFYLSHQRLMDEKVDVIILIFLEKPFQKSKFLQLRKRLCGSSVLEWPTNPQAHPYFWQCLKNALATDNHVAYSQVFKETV

CCCN(CCC)C(=O)C1=Cc2ccc(C(=O)N3CCC4(CC3)CN(c3ccccc3)C4)cc2N=C(N)C1 [Example 13, 2-Amino-8-(2-phenyl-2,7-diazaspiro[3.5]nonane-7-carbonyl)-N,N-dipropyl-3H-1-benzazepine-4-carboxamide]
EC50 (human TLR7): > 100000 nM | EC50 (human TLR8): 7 nM

CCCN(CCC)C(=O)C1=Cc2ccc(C(=O)N3CC(Nc4ccccc4)C3)cc2N=C(N)C1 [Example 3, 2-Amino-8-(3-anilinoazetidine-1-carbonyl)-N,N-dipropyl-3H-1-benzazepine-4-carboxamide]
EC50 (human TLR7): 24000 nM | EC50 (human TLR8): 5 nM

CCCN(CCC)C(=O)C1=Cc2ccc(C(=O)N3CCC(Nc4ccccc4)C3)cc2N=C(N)C1 (stereo not drawn) [Example 5, 2-Amino-8-(3-anilinopyrrolidine-1-carbonyl)-N,N-dipropyl-3H-1-benzazepine-4-carboxamide]
EC50 (human TLR7): 14000 nM | EC50 (human TLR8): 4 nM

CCCN(CCC)C(=O)C1=Cc2ccc(C(=O)N3CCC(NCc4ccccc4)C3)cc2N=C(N)C1 (stereo not drawn) [Example 19, 2-Amino-8-[3-(benzylamino)pyrrolidine-1-carbonyl]-N,N-dipropyl-3H-1-benzazepine-4-carboxamide]
EC50 (human TLR7): 6600 nM | EC50 (human TLR8): 14 nM

CCCN(CCC)C(=O)C1=Cc2ccc(C(=O)N3CCC(Nc4ccc(CN)cc4)C3)cc2N=C(N)C1 (stereo not drawn) [Example 18, 2-Amino-8-[3-[4-(aminomethyl)anilino]pyrrolidine-1-carbonyl]-N,N-dipropyl-3H-1-benzazepine-4-carboxamide]
EC50 (human TLR7): > 100000 nM | EC50 (human TLR8): 31 nM

CCCCOC1CN(C(=O)c2ccc3c(c2)N=C(N)CC(C(=O)N(CCC)CCC)=C3)C1 [Example 25, 2-Amino-8-(3-butoxyazetidine-1-carbonyl)-N,N-dipropyl-3H-1-benzazepine-4-carboxamide]
EC50 (human TLR7): 31100 nM | EC50 (human TLR8): 8 nM

CCCN(CCC)C(=O)C1=Cc2ccc(C(=O)N3CC4CCC(C3)N4c3ccccc3)cc2N=C(N)C1 [Example 15, 2-Amino-8-(8-phenyl-3,8-diazabicyclo[3.2.1]octane-3-carbonyl)-N,N-dipropyl-3H-1-benzazepine-4-carboxamide]
EC50 (human TLR7): 16000 nM | EC50 (human TLR8): 10 nM

CCCN(CCC)C(=O)C1=Cc2ccc(C(=O)N3CC4(CCN(c5ccccc5)C4)C3)cc2N=C(N)C1 [Example 7, 2-Amino-8-(7-phenyl-2,7-diazaspiro[3.4]octane-2-carbonyl)-N,N-dipropyl-3H-1-benzazepine-4-carboxamide]
EC50 (human TLR7): > 100000 nM | EC50 (human TLR8): 10 nM

CCCN(CCC)C(=O)C1=Cc2ccc(C(=O)N3CC(CNc4ccccc4)C3)cc2N=C(N)C1 [Example 4, 2-Amino-8-[3-(anilinomethyl)azetidine-1-carbonyl]-N,N-dipropyl-3H-1-benzazepine-4-carboxamide]
EC50 (human TLR7): 10000 nM | EC50 (human TLR8): 10 nM

CCCN(CCC)C(=O)C1=Cc2ccc(C(=O)N3CC4CC(C3)N4c3ccccc3)cc2N=C(N)C1 [Example 12, 2-Amino-8-(6-phenyl-3,6-diazabicyclo[3.1.1]heptane-3-carbonyl)-N,N-dipropyl-3H-1-benzazepine-4-carboxamide]
EC50 (human TLR7): 11000 nM | EC50 (human TLR8): 22 nM

CCCN(CCC)C(=O)C1=Cc2ccc(C(=O)N3CC(NCc4ccccc4)C3)cc2N=C(N)C1 [Example 17, 2-Amino-8-[3-(benzylamino)azetidine-1-carbonyl]-N,N-dipropyl-3H-1-benzazepine-4-carboxamide]
EC50 (human TLR7): 17000 nM | EC50 (human TLR8): 18 nM

CCCN(CCC)C(=O)C1=Cc2ccc(C(=O)N3CC4CN(c5ccccc5)C4C3)cc2N=C(N)C1 (stereo not drawn) [Example 16, 2-Amino-8-(6-phenyl-3,6-diazabicyclo[3.2.0]heptane-3-carbonyl)-N,N-dipropyl-3H-1-benzazepine-4-carboxamide]
EC50 (human TLR7): 12000 nM | EC50 (human TLR8): 29 nM

CCCN(CC1CC1)C(=O)C1=Cc2ccc(C(=O)N3CCC(Nc4ccccc4)CC3)cc2N=C(N)C1 [Example 9, 2-Amino-8-(4-anilinopiperidine-1-carbonyl)-N-(cyclopropylmethyl)-N-propyl-3H-1-benzazepine-4-carboxamide]
EC50 (human TLR7): 18000 nM | EC50 (human TLR8): 20 nM

CCCN(CCC)C(=O)C1=Cc2ccc(C(=O)N3CCCC3)cc2N=C(N)C1 [Example 8, 2-Amino-N,N-dipropyl-8-(pyrrolidine-1-carbonyl)-3H-1-benzazepine-4-carboxamide]
EC50 (human TLR7): 21000 nM | EC50 (human TLR8): 15 nM

CCCN(CCC)C(=O)C1=Cc2ccc(C(=O)N3CC4(CCN(c5ccccc5)CC4)C3)cc2N=C(N)C1 [Example 14, 2-Amino-8-(7-phenyl-2,7-diazaspiro[3.5]nonane-2-carbonyl)-N,N-dipropyl-3H-1-benzazepine-4-carboxamide]
EC50 (human TLR7): 33000 nM | EC50 (human TLR8): 9 nM

CCCN(CCC)C(=O)C1=Cc2ccc(C(=O)N3CCC(CNc4ccccc4)CC3)cc2N=C(N)C1 [Example 20, 2-amino-8-[4-(anilinomethyl)piperidine-1-carbonyl]-N,N-dipropyl-3H-1-benzazepine-4-carboxamide]
EC50 (human TLR7): 10000 nM | EC50 (human TLR8): 20 nM

CCCN(CCC)C(=O)C1=Cc2ccc(C(=O)N3CCC(Nc4ccccc4)CC3)cc2N=C(N)C1 [Example 2, 2-Amino-8-(4-anilinopiperidine-1-carbonyl)-N,N-dipropyl-3H-1-benzazepine-4-carboxamide]
EC50 (human TLR7): 7900 nM | EC50 (human TLR8): 6 nM

CCCN(CCC)C(=O)C1=Cc2ccc(C(=O)N3CCCC(Nc4ccccc4)C3)cc2N=C(N)C1 (stereo not drawn) [Example 23, 2-Amino-8-(3-anilinopiperidine-1-carbonyl)-N,N-dipropyl-3H-1-benzazepine-4-carboxamide]
EC50 (human TLR7): 400 nM | EC50 (human TLR8): 8 nM

C/C=C/COC1CN(C(=O)c2ccc3c(c2)N=C(N)CC(C(=O)N(CCC)CCC)=C3)C1 [Example 22, 2-Amino-8-[3-[(E)-but-2-enoxy]azetidine-1-carbonyl]-N,N-dipropyl-3H-1-benzazepine-4-carboxamide]
EC50 (human TLR7): 32000 nM | EC50 (human TLR8): 12 nM

CCCN(CCC)C(=O)C1=Cc2ccc(C(=O)N3CC4(C3)CN(c3ccc(C)cc3)C4)cc2N=C(N)C1 [Example 1, 2-Amino-N,N-dipropyl-8-[6-(p-tolyl)-2,6-diazaspiro[3.3]heptane-2-carbonyl]-3H-1-benzazepine-4-carboxamide]
EC50 (human TLR7): > 100000 nM | EC50 (human TLR8): 5 nM

CCCN(CCC)C(=O)C1=Cc2ccc(C(=O)N3CCC(CNc4ccccc4)C3)cc2N=C(N)C1 (stereo not drawn) [Example 21, 2-Amino-8-[3-(anilinomethyl)pyrrolidine-1-carbonyl]-N,N-dipropyl-3H-1-benzazepine-4-carboxamide]
EC50 (human TLR7): 6980 nM | EC50 (human TLR8): 9 nM

CCCN(CCC)C(=O)C1=Cc2ccc(C(=O)N3CCN(Cc4ccccc4)CC3)cc2N=C(N)C1 [Example 10, 2-Amino-8-(4-benzylpiperazine-1-carbonyl)-N,N-dipropyl-3H-1-benzazepine-4-carboxamide]
EC50 (human TLR7): 14000 nM | EC50 (human TLR8): 5 nM

CCCN(CCC)C(=O)C1=Cc2ccc(C(=O)N3CCCC(NCc4ccccc4)C3)cc2N=C(N)C1 (stereo not drawn) [Example 24, 2-Amino-8-[3-(benzylamino)piperidine-1-carbonyl]-N,N-dipropyl-3H-1-benzazepine-4-carboxamide]
EC50 (human TLR7): 3100 nM | EC50 (human TLR8): 14 nM

CCCN(CCC)C(=O)C1=Cc2ccc(C(=O)N3CCN(c4ccccc4)CC3)cc2N=C(N)C1 [Example 6, 2-Amino-8-(4-phenylpiperazine-1-carbonyl)-N,N-dipropyl-3H-1-benzazepine-4-carboxamide]
EC50 (human TLR7): 9000 nM | EC50 (human TLR8): 25 nM

Source: patent US10370338B2, “Benzazepine dicarboxamide compounds with tertiary amide function” (Hoffmann-La Roche Inc., priority 2016, dated 2019)
